Source: patent publication US7332617B2, “Process for the preparation of docetaxel trihydrate” (Shanghai Desano Chemical Pharmaceutical Co., Ltd., priority 2003, dated 2008)

Tests used:
[1] = stability test at 40° C., relative humidity 75%, 12 months; assay type: physicochemical; conditions: relative humidity of 75%
Description: The experiment conditions for testing the stability are: under temperature of 40° C., at relative humidity of 75%, 12 months. Within this period, the trihydrate compound remain no change.

[2] = according to Chinese patent 95193984.X; cited from earlier work
[3] = exposure in light (purity); assay type: physicochemical; conditions: exposed in light for 10 hours
Description: It is sensitive to light in some way. Shortening of the filtration time decreased the exposure time, thus the reduction of purity was avoided.

[4] = stability in high temperature; assay type: physicochemical
Description: 2. Lower operation temperature (below 40° C.). As Docetaxel's stability is bad in high temperature, this will help to avoid any purity drop of Docetaxel in purification process.

[5] = test system: transferring breast cancer; conditions: cited from earlier work

SMILES	stability [1]	stability compared with anhydrous compound [2]	purity on exposure in light [3]	stability in high temperature [4]	CR (Complete Resultful) ([5]; one research report) [%]	total chemotherapy efficiency of single Docetaxel ([5]; phase II clinical trial, patients who have received chemotherapy, generally 100 mgs/m^2, infusion, once per 3 weeks) [%]
CC(=O)O[C@@]12CO[C@@H]1C[C@H](O)[C@@]1(C)C(=O)[C@H](O)C3=C(C)[C@@H](OC(=O)[C@H](O)[C@@H](NC(=O)OC(C)(C)C)c4ccccc4)C[C@@](O)([C@@H](OC(=O)c4ccccc4)[C@H]21)C3(C)C [Docetaxel trihydrate, (2′R,3′S)-N-carboxy-3-phenylisoserine, N-tert-butyl ester, 13-ester with 5β,20-epoxy-1β,2α,4α,7β,10β,13α-hexahydroxytax-11-en-9-one 4-acetate-2-benzoate, trihydrate]	no change	more stable than its anhydrous compound				
CC(=O)O[C@@]12CO[C@@H]1C[C@H](O)[C@@]1(C)C(=O)[C@H](O)C3=C(C)[C@@H](OC(=O)[C@H](O)[C@@H](NC(=O)OC(C)(C)C)c4ccccc4)C[C@@](O)([C@@H](OC(=O)c4ccccc4)[C@H]21)C3(C)C [Docetaxel]			purity dropped	bad	4	47
